# Values quoted from earlier work in patent US11324962B2, “Magnetic field enhancement of chemotherapy for tumor treatment” (priority 2018, dated 2022).
# Conditions: in vivo
smiles,measurement,value
O=C1[O][Pt]2([NH][C@@H]3CCCC[C@H]3[NH]2)[O]C1=O [oxaliplatin],biological half-life,25 minutes
